# Data: patent publication US10513519B2, “Solid forms of (1S,4S)-4-(2-(((3S,4R)-3-fluorotetrahydro-2H-pyran-4-yl)amino)-8-((2,4,6-trichlorophenyl)amino)-9H-purin-9-yl)-1-methylcyclohexane-1-carboxamide and methods of their use” (Signal Pharmaceuticals, LLC, priority 2016, dated 2019)
# Tested on: cancer cell lines
# Test: Multiplexed cytotoxicity assay: cell proliferation (relative cell count IC50, GI50)
# Assay type: cell-based
# Conditions: Homo sapiens
# Experimental: (§1) Cells are grown in RPMI1640, 10% FBS, 2 mM L-alanyl-L-Glutamine, 1 mM Na pyruvate or a special medium in a humidified atmosphere of 5% CO2 at 37° C. Cells are seeded into 384-well plates and incubated in a humidified atmosphere of 5% CO2 at 37° C. Compounds are added 24 h post cell seeding. At the same time, a time zero untreated cell plate is generated. After a 72 hour incubation period, cells are fixed and stained with fluorescently labeled antibodies and nuclear dye to allow visualization of nuclei, apoptotic cells and mitotic cells. Apoptotic cells are detected using an anti-active caspase-3 antibody. Mitotic cells are detected using an anti phospho-histone-3 antibody. Compounds are serially diluted 3.16-fold and assayed over 10 concentrations in a final assay concentration of 0.1% DMSO from the highest test concentration of 10 μM. Automated fluorescence microscopy was carried out using a Molecular Devices ImageXpress Micro XL high-content imager, and images are collected with a 4× objective.
# (§2) Sixteen-bit TIFF images are acquired and analyzed with MetaXpress 5.1.0.41 software. Cell proliferation is measured by the signal intensity of the incorporated nuclear dye. The cell proliferation assay output is referred to as the relative cell count. To determine the cell proliferation end point, the cell proliferation data output is transformed to percentage of control (POC) using the following formula: POC=relative cell count(compound wells)/relative cell count(vehicle wells)×100
# (§3) GI50 is the concentration needed to reduce the observed growth by half. This is the concentration that inhibits the growth to the level midway between growth in untreated cells and the number of cells seeded in the well (Time zero value). The IC50 values are calculated using nonlinear regression to fit data to a sigmoidal 4 point, 4 parameter One-Site dose response model, where: y(fit)=A+[(B−A)/(1+((C/x)^D))].
# as §1, with “In another experiment, cells were grown” for “Cells are grown”, “Cells were” for “Cells are”, “Compounds were” for “Compounds are”, “plate was” for “plate is”, “cells were” for “cells are”, “images were” for “images are”
# as §2, with “images were” for “images are”, “proliferation was” for “proliferation is”, “output was” for “output is”
# as §3, with “GI50 refers to” for “GI50 is”, “This corresponds to” for “This is”, “values were” for “values are”
# [1] = DMS-114, 72 h, DMS114, Lung, SCLC, 72 h
# [2] = DMS-273, 72 h, DMS273, Lung, SCLC, 72 h
# [3] = DOHH-2, DOHH2 (Hematopoietic and lymphoid, Lymphoma)
# [4] = DU-145, 72 h, DU145, Prostate, 72 h
# [5] = Daoy, DAOY (CNS, Medulloblastoma)
# [6] = Daudi, DAUDI (Hematopoietic and lymphoid, Lymphoma)
# [7] = Detroit 562, DETROIT562 (Head and Neck)
# [8] = DoTc2-4510, DOTC24510 (Female GU, Cervix)
# [9] = GA-10, GA10 (Hematopoietic and lymphoid, Lymphoma)
# [10] = HEC-1-A, 72 h, HEC1A, Female GU, Uterus
# [11] = HEL 92.1.7, HEL9217 (Hematopoietic and lymphoid, Leukemia)
# [12] = HPAF-II, 72 h, HPAFII, Pancreas
# [13] = HT-1080, 72 h, HT1080, Soft Tissue, Sarcoma, 72 h
# [14] = Hs 294T, HS294T (Skin, Melanoma)
# [15] = Hs 695T, HS695T (Skin, Melanoma)
# [16] = HuP-T4, 72 h, HUPT4, Pancreas, 72 h
# [17] = J-RT3-T3-5, JRT3T35 (Hematopoietic and lymphoid, Leukemia)
# [18] = JEG-3, 72 h, JEG3, Female GU, Placenta, 72 h
compound,measurement,setting,value
"C[C@]1(C(N)=O)CC[C@@H](n2c(Nc3c(Cl)cc(Cl)cc3Cl)nc3cnc(N[C@@H]4CCOC[C@H]4F)nc32)CC1 [Compound 1, cis-4-[2-{[(3S,4R)-3-fluorooxan-4-yl]amino}-8-(2,4,6-trichloroanilino)-9H-purin-9-yl]-1-methylcyclohexane-1-carboxamide]",IC50,"DMS-53, 72 h, DMS53, Lung, SCLC, 72 h",> 10 µM
same,GI50,[1],0.0688 µM
same,IC50,[1],0.6 µM
same,GI50,[2],5.96 µM
same,IC50,[2],6.79 µM
same,GI50,[3],5.54 µM
same,IC50,[3],5.79 µM
same,GI50,[4],0.0738 µM
same,IC50,[4],0.0965 µM
same,GI50,[5],0.749 µM
same,IC50,[5],1.09 µM
same,GI50,[6],0.0177 µM
same,IC50,[6],> 10 µM
same,GI50,[7],0.347 µM
same,IC50,[7],> 10 µM
same,GI50,[8],0.04 µM
same,IC50,[8],0.132 µM
same,GI50,"EFM-19, EFM19 (Breast)",4.2 µM
same,IC50,"EFM-19, EFM19 (Breast)",> 10 µM
same,GI50,"FaDu, FADU (Head and Neck)",0.435 µM
same,IC50,"FaDu, FADU (Head and Neck)",0.787 µM
same,GI50,"G-361, G361 (Skin, Melanoma)",0.102 µM
same,IC50,"G-361, G361 (Skin, Melanoma)",0.15 µM
same,GI50,"G-401, G401 (Kidney)",0.0774 µM
same,IC50,"G-401, G401 (Kidney)",0.086 µM
same,GI50,"G-402, G402 (Kidney)",0.0504 µM
same,IC50,"G-402, G402 (Kidney)",0.0925 µM
same,GI50,[9],0.0468 µM
same,IC50,[9],0.0567 µM
same,GI50,"HCT-15, HCT15 (Colon)",1.97 µM
same,IC50,"HCT-15, HCT15 (Colon)",2.23 µM
same,GI50,"HCT-116, HCT116 (Colon)",0.0194 µM
same,IC50,"HCT-116, HCT116 (Colon)",0.0204 µM
same,GI50,[10],1.8 µM
same,IC50,[10],2.81 µM
same,GI50,[11],4.62 µM
same,IC50,[11],8.23 µM
same,GI50,"HMCB, HMCB (Skin, Melanoma)",0.0724 µM
same,IC50,"HMCB, HMCB (Skin, Melanoma)",0.113 µM
same,GI50,[12],0.013 µM
same,IC50,[12],0.0175 µM
same,GI50,"HRT-18, HRT18 (Colon)",0.0775 µM
same,IC50,"HRT-18, HRT18 (Colon)",0.0819 µM
same,GI50,"HT1197, HT1197 (Bladder)",0.444 µM
same,IC50,"HT1197, HT1197 (Bladder)",> 10 µM
same,GI50,"HT-29, HT29 (Colon)",0.0129 µM
same,IC50,"HT-29, HT29 (Colon)",0.0167 µM
same,GI50,[13],0.0648 µM
same,IC50,[13],0.0727 µM
same,GI50,"HT-1376, HT1376 (Bladder)",0.792 µM
same,IC50,"HT-1376, HT1376 (Bladder)",3.48 µM
same,GI50,"HeLa, HELA (Female GU, Cervix)",6.75 µM
same,IC50,"HeLa, HELA (Female GU, Cervix)",8.71 µM
same,GI50,"HepG2, HEPG2 (Liver)",0.0224 µM
same,IC50,"HepG2, HEPG2 (Liver)",0.0643 µM
same,GI50,[14],0.0507 µM
same,IC50,[14],0.0706 µM
same,GI50,"Hs 683, HS683 (CNS, Glioma)",0.148 µM
same,IC50,"Hs 683, HS683 (CNS, Glioma)",0.305 µM
same,GI50,[15],0.0363 µM
same,IC50,[15],0.16 µM
same,GI50,"Hs746T, 72 h, Stomach",0.0396 µM
same,IC50,"Hs746T, 72 h, Stomach",0.122 µM
same,GI50,"Hs-578T, HS578T (Breast)",0.153 µM
same,IC50,"Hs-578T, HS578T (Breast)",0.837 µM
same,GI50,"HuCCT-1, HUCCT1 (Liver)",0.0537 µM
same,IC50,"HuCCT-1, HUCCT1 (Liver)",0.0633 µM
same,GI50,[16],0.0434 µM
same,IC50,[16],0.0505 µM
same,GI50,"HuTu80, HUTU80 (Duodenum)",0.057 µM
same,IC50,"HuTu80, HUTU80 (Duodenum)",0.0695 µM
same,GI50,[17],3.58 µM
same,IC50,[17],4.78 µM
same,GI50,[18],6.34 µM
same,IC50,[18],7.75 µM
